Source: ChEMBL document CHEMBL1201862, “PubChem BioAssay data set” (2004)
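Briefly, cells in 96-well plates were exposed to five compound concentrations for 48 h, and endpoints were estimated by linear interpolation. GI50 = concentration required for 50% inhibition of growth.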 Calls of active or inactive are those of the source. Cut-off read from the data, not from the text of the source: active = GI50 up to about 1.1 µM and inactive = higher.

Columns and labels:
Experiment in all cases: NCI tumour cell line growth inhibition, 48 h
OVCAR-4 = tested on: OVCAR-4
M14 = tested on: M14
HCC 2998 = tested on: HCC 2998
UO-31 = tested on: UO-31
NCI-H23 = tested on: NCI-H23
HL-60 = tested on: HL-60
K562 = tested on: K562
SW-620 = tested on: SW-620
SF-539 = tested on: SF-539
SK-MEL-5 = tested on: SK-MEL-5
HCT-116 = tested on: HCT-116
NCI-H460 = tested on: NCI-H460
MOLT-4 = tested on: MOLT-4
ACHN = tested on: ACHN
HT-29 = tested on: HT-29
A549 = tested on: A549
LOX IMVI = tested on: LOX IMVI

Measured: GI50

O=C1C2=C(c3ccccc31)C(c1ccccc1)NC(S)=N2 (stereo not given)
inactive: OVCAR-4 26.1 µM | M14 55.1 µM | HCC 2998 > 100 µM | UO-31 > 100 µM | NCI-H23 > 100 µM | HL-60 17.9 µM | K562 22.3 µM | SW-620 31 µM | SF-539 19.2 µM | SK-MEL-5 54.8 µM | HCT-116 29 µM | NCI-H460 91.6 µM | MOLT-4 31.4 µM | ACHN > 100 µM | HT-29 57.5 µM | A549 45.9 µM

COc1cc(NCC(C#N)C#N)ccc1/N=N/c1ccc(Cl)cc1
inactive: OVCAR-4 37.1 µM | M14 16.4 µM | HCC 2998 19.7 µM | UO-31 16.9 µM | NCI-H23 23.8 µM | K562 22.1 µM | SW-620 20.8 µM | SF-539 25.1 µM | LOX IMVI 18.2 µM | SK-MEL-5 23 µM | HCT-116 23.7 µM | NCI-H460 23.2 µM | MOLT-4 15.5 µM | ACHN 31.8 µM | HT-29 16.4 µM | A549 33.4 µM

O=c1cc(-c2ccccc2)[nH]c2cc(Cl)cc(Cl)c12
inactive: OVCAR-4 20.5 µM | M14 > 100 µM | UO-31 84.7 µM | NCI-H23 57.7 µM | HL-60 > 100 µM | K562 7.31 µM | SW-620 > 100 µM | SF-539 29.5 µM | LOX IMVI 70 µM | SK-MEL-5 37.8 µM | HCT-116 31.6 µM | NCI-H460 59 µM | MOLT-4 > 100 µM | ACHN 43.9 µM | HT-29 > 100 µM | A549 53.3 µM

O=C(O)C1OC(Oc2cc(O)c3c(=O)cc(-c4ccc(O)cc4)oc3c2)C(O)C(O)C1O (stereo not given)
inactive: OVCAR-4 > 100 µM | M14 > 100 µM | HCC 2998 > 100 µM | UO-31 > 100 µM | NCI-H23 > 100 µM | HL-60 > 100 µM | SW-620 > 100 µM | SF-539 > 100 µM | LOX IMVI > 100 µM | SK-MEL-5 > 100 µM | HCT-116 > 100 µM | NCI-H460 > 100 µM | ACHN > 100 µM | HT-29 > 100 µM | A549 > 100 µM

N#CNc1nc(C(=O)Nc2ccc(Cl)cc2)cc(-c2ccccc2)n1
inactive: OVCAR-4 > 100 µM | M14 > 100 µM | HCC 2998 > 100 µM | UO-31 > 100 µM | NCI-H23 > 100 µM | HL-60 > 100 µM | K562 > 100 µM | SW-620 > 100 µM | SF-539 > 100 µM | SK-MEL-5 > 100 µM | HCT-116 > 100 µM | MOLT-4 > 100 µM | ACHN > 100 µM | HT-29 > 100 µM | A549 > 100 µM

O=C1CCC2(c3ccccc3)OCC([C@@H](O)c3ccccc3)N12 (stereo not given in full)
inactive: OVCAR-4 > 100 µM | NCI-H23 > 100 µM | K562 > 100 µM | SW-620 > 100 µM | SF-539 > 100 µM | LOX IMVI > 100 µM | SK-MEL-5 > 100 µM | HCT-116 > 100 µM | NCI-H460 > 100 µM | ACHN > 100 µM | HT-29 > 100 µM | A549 > 100 µM

COc1ccc2nc(-c3cccs3)cc(C(O)CN3CCSCC3)c2c1 (stereo not given)
inactive: OVCAR-4 8.3 µM | M14 18.1 µM | HCC 2998 19.7 µM | UO-31 18.7 µM | NCI-H23 20.9 µM | HL-60 2.58 µM | K562 12.9 µM | SW-620 30.7 µM | SF-539 22.1 µM | LOX IMVI 16.5 µM | SK-MEL-5 16.4 µM | NCI-H460 16.3 µM | MOLT-4 12.2 µM | ACHN 13.5 µM | HT-29 25 µM | A549 30.1 µM

CC1CC(=O)C(CC(=O)O)[C@H]1C(C(=O)C(=O)Nc1cc(Cl)ccc1Cl)[N+](=O)[O-] (stereo not given in full)
inactive: HCC 2998 > 100 µM | UO-31 > 100 µM | HL-60 > 100 µM | K562 > 100 µM | SW-620 > 100 µM | SF-539 > 100 µM | LOX IMVI > 100 µM | SK-MEL-5 > 100 µM | NCI-H460 > 100 µM | ACHN > 100 µM | HT-29 > 100 µM | A549 > 100 µM

O=CC[C@H]1C(=O)C[C@@H]2CCC[C@@H]21
inactive: OVCAR-4 > 100 µM | M14 68.2 µM | HCC 2998 > 100 µM | NCI-H23 43.7 µM | HL-60 32.1 µM | K562 34.2 µM | SW-620 46.9 µM | SF-539 50.1 µM | SK-MEL-5 33.5 µM | HCT-116 37.2 µM | NCI-H460 > 100 µM | MOLT-4 43.4 µM | ACHN > 100 µM | HT-29 94 µM | A549 > 100 µM

CN(C)CC(/C(Cc1ccccc1)=N\NC(=S)NN)c1ccccc1 (stereo not given)
inactive: OVCAR-4 > 100 µM | M14 > 100 µM | HCC 2998 > 100 µM | UO-31 > 100 µM | NCI-H23 > 100 µM | HL-60 > 100 µM | K562 > 100 µM | SW-620 > 100 µM | SF-539 > 100 µM | LOX IMVI > 100 µM | HCT-116 > 100 µM | NCI-H460 > 100 µM | MOLT-4 > 100 µM | ACHN > 100 µM | HT-29 > 100 µM | A549 > 100 µM

Cc1cc(Cl)ccc1NC1=NC(=O)C(CC(=O)Nc2ccc(Cl)cc2Cl)S1 (stereo not given)
inactive: OVCAR-4 > 100 µM | M14 > 100 µM | HCC 2998 > 100 µM | UO-31 > 100 µM | NCI-H23 > 100 µM | K562 > 100 µM | SW-620 > 100 µM | SF-539 > 100 µM | LOX IMVI > 100 µM | SK-MEL-5 > 100 µM | NCI-H460 > 100 µM | MOLT-4 > 100 µM | ACHN > 100 µM | HT-29 > 100 µM | A549 > 100 µM

COC(=O)C1=CCON(c2ccccc2)C1c1ccccc1 (stereo not given)
inactive: OVCAR-4 > 10 µM | M14 32.2 µM | HCC 2998 65.5 µM | UO-31 36.1 µM | NCI-H23 33.2 µM | HL-60 24.9 µM | K562 40.4 µM | SW-620 70.5 µM | SF-539 > 100 µM | LOX IMVI 47.1 µM | NCI-H460 48.2 µM | MOLT-4 27 µM | ACHN 57 µM | HT-29 40.4 µM | A549 40.2 µM

C[N+](C)(C)CC1CCCC/C1=N\O (stereo not given)
inactive: OVCAR-4 > 100 µM | M14 > 100 µM | HCC 2998 > 100 µM | UO-31 > 100 µM | NCI-H23 > 100 µM | HL-60 > 100 µM | K562 > 100 µM | SW-620 > 100 µM | SF-539 > 100 µM | LOX IMVI > 100 µM | HCT-116 > 100 µM | NCI-H460 > 100 µM | MOLT-4 > 100 µM | ACHN > 100 µM | HT-29 > 100 µM | A549 > 100 µM
